This assay addresses T1, CFTR (Homo sapiens, UniProt P13569, DEL508-508).
T1 construct: endogenous in cells; host or cells: primary human bronchial epithelial cells from CF subjects (F508del/MF-HBE), differentiated at air-liquid interface
Put plainly: HBE2 assay: Ussing chamber assay of CFTR-mediated short-circuit currents. The class given is cell-based. As to conditions: F508del/MF-HBE cells, with 44 nM potentiator, 18-24 hours, 20% human serum; for Emax: read-out: HBE2 Max activity (%). The essentials:
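Corrector activity read as CFTR-dependent ISC (μA/cm^2): peak forskolin current minus post-inhibitor steady state. Measured at 37 °C, voltage clamp at 0 mV, on F508del/MF-HBE epithelia grown >14 days air-liquid interface in Ussing chambers.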

pEC50: −log10 of the molar value. Bounds are passed on as bounds.

T1 sequence (P13569 with tags, fused parts or gaps DEL508-508): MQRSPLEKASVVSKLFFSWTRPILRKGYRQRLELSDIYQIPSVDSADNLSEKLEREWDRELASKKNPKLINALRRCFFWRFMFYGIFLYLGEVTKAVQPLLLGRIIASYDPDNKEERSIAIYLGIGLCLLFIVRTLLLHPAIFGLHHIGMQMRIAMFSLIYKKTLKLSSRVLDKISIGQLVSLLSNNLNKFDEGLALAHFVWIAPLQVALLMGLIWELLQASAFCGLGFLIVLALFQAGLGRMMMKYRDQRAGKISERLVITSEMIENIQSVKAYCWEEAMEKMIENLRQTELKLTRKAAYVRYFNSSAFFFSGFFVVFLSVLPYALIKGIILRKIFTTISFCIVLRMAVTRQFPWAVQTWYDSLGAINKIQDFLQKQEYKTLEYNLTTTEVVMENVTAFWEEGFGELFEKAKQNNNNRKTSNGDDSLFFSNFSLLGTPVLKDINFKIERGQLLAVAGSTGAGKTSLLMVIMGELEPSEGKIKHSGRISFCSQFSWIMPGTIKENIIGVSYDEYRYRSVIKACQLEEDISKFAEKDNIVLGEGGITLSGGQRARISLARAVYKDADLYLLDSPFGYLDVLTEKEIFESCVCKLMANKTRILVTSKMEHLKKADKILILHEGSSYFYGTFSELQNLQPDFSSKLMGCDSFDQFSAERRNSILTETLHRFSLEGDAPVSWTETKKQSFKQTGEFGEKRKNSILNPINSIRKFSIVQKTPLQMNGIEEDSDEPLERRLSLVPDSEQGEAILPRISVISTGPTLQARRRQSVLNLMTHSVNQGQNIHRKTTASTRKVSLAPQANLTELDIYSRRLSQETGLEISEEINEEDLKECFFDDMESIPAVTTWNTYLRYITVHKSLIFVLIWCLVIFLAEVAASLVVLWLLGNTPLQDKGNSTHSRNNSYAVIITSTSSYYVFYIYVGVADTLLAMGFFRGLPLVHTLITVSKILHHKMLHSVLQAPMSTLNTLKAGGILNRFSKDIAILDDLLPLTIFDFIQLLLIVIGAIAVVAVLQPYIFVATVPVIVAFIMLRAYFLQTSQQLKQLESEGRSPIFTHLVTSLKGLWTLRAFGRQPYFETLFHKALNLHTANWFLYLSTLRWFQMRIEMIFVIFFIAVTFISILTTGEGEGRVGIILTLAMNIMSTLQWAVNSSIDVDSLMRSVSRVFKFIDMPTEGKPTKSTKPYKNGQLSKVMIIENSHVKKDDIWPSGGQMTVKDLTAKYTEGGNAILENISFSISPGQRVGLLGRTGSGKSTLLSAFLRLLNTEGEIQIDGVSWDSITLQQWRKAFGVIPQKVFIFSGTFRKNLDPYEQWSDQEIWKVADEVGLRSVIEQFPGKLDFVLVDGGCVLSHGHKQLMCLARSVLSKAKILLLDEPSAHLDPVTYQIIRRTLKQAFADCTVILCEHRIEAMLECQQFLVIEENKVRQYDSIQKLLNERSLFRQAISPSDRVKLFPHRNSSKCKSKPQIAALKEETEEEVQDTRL

In the case of `COC(=O)N1CC2CCN(c3cncc(CN4C(=O)c5cccc(c5)S(=O)(=O)Nc5nc(cc(-c6c(C)cccc6C)n5)OC[C@H]4CC(C)(C)C)n3)C2C1` (stereo partly shown) [Compound 1681], the “HBE2 Activity at 3 μM (%)” value is recorded as “+++ (+++ is >60+)”. Same read-out and setting: the result for `Cc1cccc(C)c1-c1cc2nc(n1)NS(=O)(=O)c1cccc(c1)C(=O)N(Cc1cncc(N(C)C3CCC3)n1)[C@H](CC1CC3(CCC3)C1)CO2` [Compound 1682] reads “+++ (+++ is >60+)”. In the case of `Cc1cccc(C)c1-c1cc2nc(n1)NS(=O)(=O)c1cccc(c1)C(=O)N(Cc1cncc(N(C)C3CCC3)n1)[C@H](CC1(C)CCC1)CO2` [Compound 1683], the “HBE2 Activity at 3 μM (%)” value was “+++ (+++ is >60+)”, the pEC50 is above 6.00 and the Emax was above 60%.

Take `Cc1cccc(C)c1-c1cc2nc(n1)NS(=O)(=O)c1cccc(c1)C(=O)N(Cc1cncc(N(C)C3CCC3)n1)[C@H](CCC1CC1)CO2` [Compound 1684]: the “HBE2 Activity at 3 μM (%)” value is reported as “+++ (+++ is >60+)”, the pEC50 was above 6.00 and the Emax was above 60%. On the same counts, the results for `Cc1cccc(C)c1-c1cc2nc(n1)NS(=O)(=O)c1cccc(c1)C(=O)N(Cc1cncc(N(C)C3CCC3)n1)[C@H](CCC(C)C)CO2` [Compound 1685] are “+++ (+++ is >60+)”, above 6.00 and above 60%. For the molecule `COC(=O)N(C)CCN(C)c1cncc(CN2C(=O)c3cccc(c3)S(=O)(=O)Nc3nc(cc(-c4c(C)cccc4C)n3)OC[C@H]2CC(C)(C)C)n1` [Compound 1686], the “HBE2 Activity at 3 μM (%)” value is “+++ (+++ is >60+)”. Same read-out and setting: the result for `Cc1cccc(C)c1-c1cc2nc(n1)NS(=O)(=O)c1cccc(c1)C(=O)N(Cc1cncc(N3CC4CC3C4)n1)[C@H](CC(C)(C)C)CO2` [Compound 1687] reads “+++ (+++ is >60+)”. Turning to `Cc1cccc(C)c1-c1cc2nc(n1)NS(=O)(=O)c1cccc(c1)C(=O)N(Cc1cncc(N(C)C3CCC3)n1)[C@H](CC1(C(F)(F)F)CC1)CO2` [Compound 1688], the “HBE2 Activity at 3 μM (%)” value is reported as “+++ (+++ is >60+)”, the pEC50 was above 6.00 and the Emax was above 60%. On to `Cc1cccc(C)c1-c1cc2nc(n1)NS(=O)(=O)c1cccc(c1)C(=O)N(Cc1cncc(N(C)C3CCC3)n1)[C@H](CC(C)(C)C(F)(F)F)CO2` [Compound 1689], for which the “HBE2 Activity at 3 μM (%)” value is “+++ (+++ is >60+)”, the pEC50 is above 6.00 and the Emax was above 60%. For `Cc1cccc(C)c1-c1cc2nc(n1)NS(=O)(=O)c1cccc(c1)C(=O)N(Cc1cncc(N(C)C3CCC3)n1)[C@H](C(C)C)CO2` [Compound 1690], the “HBE2 Activity at 3 μM (%)” value is given as “+++ (+++ is >60+)”. The same measure, in the same setting: the entry for `Cc1cccc(C)c1-c1cc2nc(n1)NS(=O)(=O)c1cccc(c1)C(=O)N(Cc1cncc(N3CC4CC3(C)C4)n1)[C@H](CC(C)(C)C)CO2` [Compound 1691] is “+++ (+++ is >60+)”. On the same count and under the same terms, the result for `Cc1cccc(C)c1-c1cc2nc(n1)NS(=O)(=O)c1cccc(c1)C(=O)N(Cc1cncc(N3CCOC4CCCC43)n1)[C@H](CC(C)(C)C)CO2` (stereo partly shown) [Compound 1692] reads “+++ (+++ is >60+)”; that for `COCCCN(C)c1cncc(CN2C(=O)c3cccc(c3)S(=O)(=O)Nc3nc(cc(-c4c(C)cccc4C)n3)OC[C@H]2CC(C)(C)C)n1` [Compound 1693], “+++ (+++ is >60+)”.

In the case of `CCCN(C)c1cncc(CN2C(=O)c3cccc(c3)S(=O)(=O)Nc3nc(cc(-c4c(C)cccc4C)n3)OC[C@H]2CC(C)(C)C)n1` [Compound 1694], the “HBE2 Activity at 3 μM (%)” value is reported as “+++ (+++ is >60+)”. Same read-out and setting: the entry for `CCN(C)c1cncc(CN2C(=O)c3cccc(c3)S(=O)(=O)Nc3nc(cc(-c4c(C)cccc4C)n3)OC[C@H]2CC(C)(C)C)n1` [Compound 1695] is “+++ (+++ is >60+)”.

As to `Cc1cccc(C)c1-c1cc2nc(n1)NS(=O)(=O)c1cccc(c1)C(=O)N(Cc1cncc(N(C)CCC(C)C)n1)[C@H](CC(C)(C)C)CO2` [Compound 1696], the “HBE2 Activity at 3 μM (%)” value is on record as “+++ (+++ is >60+)”.

`CCN(CC)c1cncc(CN2C(=O)c3cccc(c3)S(=O)(=O)Nc3nc(cc(-c4c(C)cccc4C)n3)OC[C@H]2CC(C)(C)C)n1` [Compound 1697]: the “HBE2 Activity at 3 μM (%)” value is “+++ (+++ is >60+)”. For `CCCCN(C)c1cncc(CN2C(=O)c3cccc(c3)S(=O)(=O)Nc3nc(cc(-c4c(C)cccc4C)n3)OC[C@H]2CC(C)(C)C)n1` [Compound 1698], the “HBE2 Activity at 3 μM (%)” value was “+++ (+++ is >60+)”.

Take `Cc1cccc(C)c1-c1cc2nc(n1)NS(=O)(=O)c1cccc(c1)C(=O)N(Cc1cncc(N3CCC3CNC(=O)OC(C)(C)C)n1)[C@H](CC(C)(C)C)CO2` (stereo partly shown) [Compound 1699]: the “HBE2 Activity at 3 μM (%)” value is on record as “+++ (+++ is >60+)”.

`COc1cc(CN2C(=O)c3cccc(c3)S(=O)(=O)Nc3nc(cc(-c4c(C)cccc4C)n3)OC[C@H]2CC(C)(C)C)nc(N(C)C2CCC2)c1` [Compound 1700]: the “HBE2 Activity at 3 μM (%)” value is recorded as “+++ (+++ is >60+)”.

With `Cc1cccc(C)c1-c1cc2nc(n1)NS(=O)(=O)c1cccc(c1)C(=O)N(Cc1cncc(N(C)C3CCC3)n1)[C@H](CC(C)(C)F)CO2` [Compound 1701], the pEC50 was above 6.00 and the Emax was above 60%.

`CC[C@@H](C)[C@@H]1COc2cc(-c3c(C)cccc3C)nc(n2)NS(=O)(=O)c2cccc(c2)C(=O)N1Cc1cncc(N(C)C2CCC2)n1` [Compound 1702]: the pEC50 was above 6.00 and the Emax is above 60%. For `CC[C@H](C)[C@@H]1COc2cc(-c3c(C)cccc3C)nc(n2)NS(=O)(=O)c2cccc(c2)C(=O)N1Cc1cncc(N(C)C2CCC2)n1` [Compound 1703] the same measures were above 6.00 and above 60%. On to `CC(C)c1ccccc1-c1cc2nc(n1)NS(=O)(=O)c1cccc(c1)C(=O)N(Cc1cncc(N(C)C3CCC3)n1)[C@H](CC(C)(C)C)CO2` [Compound 1704], for which the “HBE2 Activity at 3 μM (%)” value is “+++ (+++ is >60+)”. In the case of `Cc1ccccc1-c1cc2nc(n1)NS(=O)(=O)c1cccc(c1)C(=O)N(Cc1cncc(N(C)C3CCC3)n1)[C@H](CC(C)(C)C)CO2` [Compound 1705], the “HBE2 Activity at 3 μM (%)” value is reported as “+++ (+++ is >60+)”, the pEC50 is above 6.00 and the Emax was above 60%.

With `COCC1CC2(CCN2c2cncc(CN3C(=O)c4cccc(c4)S(=O)(=O)Nc4nc(cc(-c5c(C)cccc5C)n4)OC[C@H]3CC(C)(C)C)n2)C1` (stereo partly shown) [Compound 1706], the “HBE2 Activity at 3 μM (%)” value was “+++ (+++ is >60+)”. The same measure, in the same setting: the entry for `COCC1CC2(CCN2c2cncc(CN3C(=O)c4cccc(c4)S(=O)(=O)Nc4nc(cc(-c5c(C)cccc5C)n4)OC[C@H]3CC(C)(C)C)n2)C1` (stereo partly shown) [Compound 1707] is “+++ (+++ is >60+)”; for `Cc1cccc(C)c1-c1cc2nc(n1)NS(=O)(=O)c1cccc(c1)C(=O)N(Cc1cncc(N3C[C@H]4CCC[C@H]43)n1)[C@H](CC(C)(C)C)CO2` [Compound 1708] it is “+++ (+++ is >60+)”. For `Cc1cccc(C)c1-c1cc2nc(n1)NS(=O)(=O)c1cccc(c1)C(=O)N(Cc1cncc(N(C)CC(C)C)n1)[C@H](CC1CC1)CO2` [Compound 1710], the “HBE2 Activity at 3 μM (%)” value is given as “+++ (+++ is >60+)”, the pEC50 is above 6.00 and the Emax was above 60%. For `Cc1cccc(C)c1-c1cc2nc(n1)NS(=O)(=O)c1cccc(c1)C(=O)N(Cc1cncc(N(C)CC(C)C)n1)[C@H](CC1(C)CC1)CO2` [Compound 1711] the same measures were “+++ (+++ is >60+)”, above 6.00 and above 60%.

In general, pEC50 refers to −log10 of the EC50, conventionally taken in molar units.

The values are drawn from patent publication US20240150377A1, “MODULATORS OF CYSTIC FIBROSIS TRANSMEMBRANE CONDUCTANCE REGULATOR” (VERTEX PHARMACEUTICALS INCORPORATED, priority 2020, published 2024).
